The results in this text go back to patent US20240002846A1, “COMPOSITIONS AND METHODS FOR THE DIAGNOSIS AND TREATMENT OF ITCH” (Duke University, priority 2020, published 2024).

For assay [1], the system named is mice. Kind of assay: Effect of inhibitor pretreatment on LPA-, LPC- or miR-146a-induced scratching behavior. Type of assay: in vivo, mouse.
For another assay, the target named is T1, hTRPV4 (Homo sapiens, UniProt Q9HBA0).
T1 construct: expressed in transfected cells; host or cells: HEK293 (ATCC CRL-1573)
Kind of assay: Inside-out patch-clamp, hTRPV4. Type of assay: biochemical. The note with it: 5 μM LPC 18:1; WT-hTRPV4. As to the method:
Cell culture and transfection. HEK293 cells (ATCC® CRL-1573) were cultured on poly-D-lysine coated coverslips in 24-well plate containing DMEM media with high-Glucose (Gibco, Gaithersburg, MD) supplemented with 10% fetal bovine serum (FBS, HyClone Laboratories, Logan, UT) and 100 U/mL of penicillin/streptomycin (Gibco, Gaithersburg, MD). Cell cultures were maintained with 5% of CO2 in a humidified incubator at 37° C. HEK cells were transfected with rat or human wild type or mutant TRPV4 channels with EGFP or YFP coupled to their C-termini (1.5 μg of plasmid for excised patch clamp and Ca^2+ imaging and 200 ng for single-channel experiments). […]
Electrophysiology. Currents were recorded using the inside-out configuration of the patch-clamp technique (Hamill et al. Pflugers Arch. 1981, 391, 85-100). […] Mean current values in response to GSK1016790A or LPC 18:1 were measured after channel activation had reached the steady-state (˜3 min). […] Currents were low-pass filtered at 2 kHz and sampled at 10 kHz with an EPC 10 amplifier (HEKA Elektronik) and were plotted and analyzed with Igor Pro (Wavemetrics Inc.).
For orientation: In patch-clamp work, channel activity is measured electrically.

The next assay deals with rTRPV4 (Rattus norvegicus, UniProt Q9ERZ8). Briefly: In vitro interaction (overlay) assay LPC-TRPV4. The format is binding. Also on record: made in house; host or cells: HEK293 cells, surface proteins isolated with Pierce Cell Surface Isolation kit. The note with it: 200 pmol per spot. On the procedure:
In vitro interaction assays of LPC-TRPV4. Surface proteins were obtained from HEK293 cells transiently expressing rTRPV4-EGFP channels using the Pierce Cell Surface Isolation kit (Pierce Biotechnology, Rockford, IL) following the manufacturer's instructions. Overlay assays were performed as previously described (Morales-Lazaro et al. Nat. Commun. 2016, 7, 13092). In brief, LPC 18:1 was spotted (200 pmol per spot) onto a nitrocellulose membrane (GE Healthcare, Pittsburgh, PA) and then blocked with 1% fatty acid-free BSA (Calbiochem) and 6% fat-free dried milk in PBS. Membranes were then incubated with the surface protein solutions and exposed to anti-GFP antibody (Sigma, St. Louis, MO) diluted 1:1000 in 3% fat-free dried milk in PBST (with 0.1% of Tween). Membranes were incubated with horseradish peroxidase-conjugated secondary anti-rabbit antibody (Cell Signaling Technology) diluted 1:7500 in 6% fat-free dried milk in PBST. The binding of rTRPV4-EGFP and TRPV4-R746D-EGFP to the lipid-containing spots was visualized by chemiluminescence by exposing the blot for 15 min (Amersham Bioscience, Piscataway, NJ). Semi-quantitative densitometric analysis was done using ImageJ (NIH) and expressed as relative protein levels of TRPV4 bound to each spot.

Assay [2] deals with mice. Briefly: Scratching behavior after i.d. injection into dorsal neck skin. Type of assay: in vivo, mouse. The note with it: i.d. into dorsal neck, LPA 18:1 500 μg, LPC 50-500 μg, LPC species at the same dose. On the procedure:
Behavioral assessment. Mice were shaved at the dorsal neck 1 d before experiments. Mice were allowed to acclimate to a Plexiglas chamber for at least 30 min before testing and received intradermal (i.d.) injection of 50 μL of LPA 18:1, LPC, LPC 14:0, LPC 16:0, LPC 18:0, LPC 18:1, miR-146a mimic, miR-146a scramble, ATP or vehicles through a 30-gauge needle (Becton Dickinson, Franklin Lakes, NJ) into the neck skin. After injections, mice were immediately placed back to the chamber, and the scratching behavior was recorded by a Panasonic video camera for 30 min. Hind limb scratching behavior directed toward the injected area at the nape of neck was observed. One scratch is defined as a lifting of the hind limb toward the injection site and then a replacing of the limb back to the floor, regardless of how many scratching strokes take place between those two movements. Behavioral analysis was conducted by observers blinded to genotype.

Entries after “also recorded” stand apart in the source; their conditions may differ.

T1 sequence (Q9HBA0 whole entry): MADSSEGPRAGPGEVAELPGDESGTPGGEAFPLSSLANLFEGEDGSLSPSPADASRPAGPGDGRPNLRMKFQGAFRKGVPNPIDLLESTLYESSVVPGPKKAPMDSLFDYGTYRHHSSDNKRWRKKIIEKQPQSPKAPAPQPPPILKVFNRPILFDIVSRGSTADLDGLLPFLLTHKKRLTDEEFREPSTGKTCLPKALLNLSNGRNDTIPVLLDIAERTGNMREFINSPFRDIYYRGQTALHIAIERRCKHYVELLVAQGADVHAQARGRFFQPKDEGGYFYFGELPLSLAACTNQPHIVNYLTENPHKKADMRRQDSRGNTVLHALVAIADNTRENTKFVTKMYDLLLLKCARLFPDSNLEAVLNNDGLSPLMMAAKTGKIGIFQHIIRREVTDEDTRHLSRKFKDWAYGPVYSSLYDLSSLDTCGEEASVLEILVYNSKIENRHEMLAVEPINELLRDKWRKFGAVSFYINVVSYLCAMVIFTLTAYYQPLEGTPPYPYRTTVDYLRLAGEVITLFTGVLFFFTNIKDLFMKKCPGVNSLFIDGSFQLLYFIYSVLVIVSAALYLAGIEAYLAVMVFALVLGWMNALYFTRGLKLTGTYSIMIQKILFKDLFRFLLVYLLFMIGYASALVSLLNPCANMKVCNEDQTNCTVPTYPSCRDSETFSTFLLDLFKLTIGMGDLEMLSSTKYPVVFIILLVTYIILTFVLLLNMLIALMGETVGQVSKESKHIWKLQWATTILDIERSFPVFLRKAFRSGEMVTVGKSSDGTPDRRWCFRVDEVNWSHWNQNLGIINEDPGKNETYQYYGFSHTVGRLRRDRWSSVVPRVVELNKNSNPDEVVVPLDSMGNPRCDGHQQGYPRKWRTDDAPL
Sequence of rTRPV4 (Q9ERZ8 whole entry): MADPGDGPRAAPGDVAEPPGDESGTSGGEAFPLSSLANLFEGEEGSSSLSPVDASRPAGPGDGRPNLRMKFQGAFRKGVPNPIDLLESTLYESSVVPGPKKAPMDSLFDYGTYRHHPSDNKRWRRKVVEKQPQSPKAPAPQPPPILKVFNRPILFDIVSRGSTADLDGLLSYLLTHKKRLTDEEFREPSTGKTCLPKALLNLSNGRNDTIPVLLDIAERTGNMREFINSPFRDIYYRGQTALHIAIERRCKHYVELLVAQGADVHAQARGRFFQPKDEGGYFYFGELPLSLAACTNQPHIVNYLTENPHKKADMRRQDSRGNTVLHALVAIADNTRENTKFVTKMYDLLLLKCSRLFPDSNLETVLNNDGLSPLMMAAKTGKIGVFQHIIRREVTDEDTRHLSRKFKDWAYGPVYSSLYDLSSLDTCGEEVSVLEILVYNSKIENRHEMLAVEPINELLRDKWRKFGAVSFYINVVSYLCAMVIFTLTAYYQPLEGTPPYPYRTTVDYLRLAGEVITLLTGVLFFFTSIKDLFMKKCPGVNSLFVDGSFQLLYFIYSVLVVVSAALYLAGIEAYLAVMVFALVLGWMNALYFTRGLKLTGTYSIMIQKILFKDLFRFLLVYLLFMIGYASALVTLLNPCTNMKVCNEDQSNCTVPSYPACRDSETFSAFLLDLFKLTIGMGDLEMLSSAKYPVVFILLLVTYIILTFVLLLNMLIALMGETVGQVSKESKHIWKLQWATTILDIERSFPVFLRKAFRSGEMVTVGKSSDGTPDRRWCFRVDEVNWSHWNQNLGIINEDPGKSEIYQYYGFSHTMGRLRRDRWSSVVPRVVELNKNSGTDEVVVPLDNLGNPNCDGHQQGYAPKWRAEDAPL

For the molecule `Cc1c(C(=O)Nc2cccc(C(F)(F)F)c2)cc(-c2ccccc2)n1CCCN1CCOCC1` [HC067047], the “effect on LPC-induced itch (TRPV4 inhibitors)” value is given as “a reduction” in the assay on mice [1] (WT mice, i.p. pretreatment 20 mg/kg) and “significantly reduced” in the assay with mice [1] (WT mice, i.p. pretreatment 20 mg/kg, listed as HC067). Also, the “effect on LPA (18:1)-induced itch” value with mice [1] (WT mice, i.p. pretreatment 20 mg/kg, LPA 500 μg i.d.) is on record as “no significant reduction in scratching; also recorded: not significantly altered”.
With `N#CC(=C(/N)Sc1ccccc1N)/C(C#N)=C(\N)Sc1ccccc1N` [U0126], the “effect on LPC-induced itch (MEK inhibitor)” value in the assay on mice [1] (i.d. pretreatment 20 μg/50 μL) is reported as “significant reduction; also recorded: significantly attenuated”.
On to LPC 18:1, for which the “average activation of currents, normalized to 1 μM GSK101” value on hTRPV4 came out at 48±6%. Besides, the “binding of LPC 18:1 to rTRPV4” value on rTRPV4 was “demonstrated binding”. Further, the “scratching behavior (itch) induced by i.d. injection of lipid” value with mice [2] was “caused robust itch; also recorded: most potent”; with mice [2] (listed as LPC (18:1)), “the most potent”.
